Measurements: patent US20240245707A1, “COMPOSITIONS FOR TREATING INSOMNIA AND USES THEREOF” (Zhejiang Jiachi Development Pharmaceuticals LTD., priority 2021, published 2024)
Several values for one entry are separate records, joined by “and”; a condition that tells them apart may be missing. Equal values may be shown once. Entries after “also recorded” stand apart in the source; their conditions may differ.

Tests used:
[1] = system: postmenopausal women with chronic insomnia; experiment: Phase II clinical trial of α-anordrin enteric-coated tablets, Athens Insomnia Scale (AIS) index, preliminary results; type: in vivo, human
Experimental: This Phase II clinical trial uses a randomized, double-blind, parallel-controlled design and is conducted in three clinical trial centers. A total of three drug groups are pre-set which are a) the 0.05 mg/day dosing group, b) the 0.1 mg/day dosing group, and c) the 0.15 mg/day dosing group as well as the placebo group. The drug intervention period is 8 weeks, and the drug intervention is followed up for 4 weeks. Primary efficacy endpoint includes vaginal detachment cell maturity index and dryness in postmenopausal women. Secondary efficacy endpoint includes quality in postmenopausal women, vaginal microecological index, vaginal pH in postmenopausal women, as well as the safety endpoint. The effectiveness and safety of different doses of α-anordrin tablets are preliminarily evaluated.
Group 1 (0.05 mg dose group): daily oral administration of one 0.05 mg α-anordrin enteric-coated tablet. Group 2 (0.1 mg dose group): daily oral administration of one 0.1 mg α-anordrin enteric-coated tablet. Group 3 (0.15 mg dose group): daily oral administration of one 0.15 mg α-anordrin enteric-coated tablet. Group 4: placebo group. […]

[2] = system: postmenopausal women having insomnia; experiment: Self-assessment of insomnia with Athens Insomnia Scale (AIS) before and after taking anordrin; type: in vivo, human
Experimental: Insomnia is usually measured using sleep disorder questionnaire (SDQ) such as Pittsburgh sleep quality index (PSQI), Epworth Sleeping Scale or the Athens Insomnia Scale (AIS), or using sleep quality monitor to count sleep dysfunction rating scale (SDRS). AIS is the one of popularly used SEQ. It is measured by assessing eight factors amongst which first five factors are related to nocturnal sleep and last three factors are related to daytime dysfunction. These are rated on a 0-3 scale and the sleep is finally evaluated from the cumulative score of all factors and reported as an individual's sleep outcome. Over the period of time, AIS is considered to be an effective tool in sleep analysis, and it is validated in various countries by testing it on local patients. A cut-off score of at least 6 on the AIS is used to establish the diagnosis of insomnia. See Soldatos C R, Dikeos D G, Paparrigopoulos T J (2002). “The diagnostic validity of the Athens Insomnia Scale”. J Psychosom Res. 55 (3): 263-7.
Individuals who have taken anordrin (less than 1 mg) were self-assessed for the presence and the extent of insomnia before and after they took anordrin. Specifically, thirteen postmenopausal women took anordrin for about two weeks to a few months. Their sleep quality were evaluated with Athens Insomnia Scale (AIS).

[3] = system: rat primary neuronal cells; experiment: ATP level of neuronal cells treated with anordrin (ATP assay kit); type: cell-based; conditions: 10 nM anordrin, 24 hours, vs vehicle; FIG. 5
Experimental: See Chikahisa et al., Front Neurol. 2011; 2: 87.
Materials and equipment include cell culture medium, FBS and Charcoal stripped FBS, ATP assay kit (Thermofisher) and rat primary neuronal cells (Wuhan servisebio).
Primary neuronal cells (2×10^6) were grew in medium containing 10% FBS in 6 well plates for 24 hours. Then the medium was replaced with phenol red free medium contain 5% Charcoal stripped FBS for 24 hours. 10 nM anordrin or vechile were added in medium for 24 hours, and then cells were harvested. The fluorescence density of ATP was assayed using ATP assay kit following manufacture's instruction.

`C#C[C@@]1(OC(=O)CC)C[C@@H]2CC[C@@H]3[C@H](CC[C@@]4(C)[C@H]3CC[C@]4(C#C)OC(=O)CC)[C@@]2(C)C1` [anordrin, 2α, 17α-diethynyl-A-nor-5α-androstane-2β,17β-diol dipropionate] was tested. Which “AIS number (after treatment)” value ([1]; one patient per row, 0.05 mg/day oral, before treatment 12-19, preliminary results) did it give?
Its value is 4 and 5 (2×).

And the “sleeping quality after treatment (in words)” value ([1]; three patients, 0.05 mg/day)?
The value was “significantly improved sleeping quality”.

What about the “decrease of the average number of AIS” value ([2]; after vs before treatment, thirteen postmenopausal women) of the same compound?
Its value is 63%.

What about the “postmenopausal women having insomnia that exhibited a significant improvement in sleeping” value ([2]; anordrin at various dosages, Example 1) of the same compound?
The value was 100%.

And the “numbers of AIS for each patient after treatment (in words)” value ([2]; thirteen postmenopausal women, FIG. 3 and Table 1)?
Its value is “significantly decreased”.

What about the “Average # of AIS after treatment” value ([2]; thirteen postmenopausal women, average before treatment 17.4, STDEV 1.2, p value <0.0001) of the same compound?
Its value is 6.3.

What about the “ATP level of neuronal cells” value [3] of the same compound?
The value was “significantly increased; also recorded: induces ATP surge”.
